From patent US10112928B2, “Inhibitors of SYK” (Hoffmann-La Roche Inc., priority 2012, dated 2018) come the findings set out here.

The subject of assay [1] is CD69 up-regulation on B-cell lymphocytes (CD20+) stimulated with anti-human IgM. Briefly: B Cell CD69 Up-Regulation Assay in Human Whole Blood. Format: cell-based. The conditions noted are these: read-out: Human whole blood IC50. How it is done: B Cell CD69 Up-Regulation Assay in Human Whole Blood
Human Blood was collected from healthy volunteers into Vacutainers (BD Biosciences, San Jose, Calif.) containing sodium heparin. Test compound was suspended in DMSO and nine half-log serial dilutions were made. The concentration of […] in the assay was 0.5%. 100 μL whole blood was pre-incubated with compound for 30 min and then stimulated with goat F(ab′)2 anti-human IgM (50 μg/mL, Southern Biotech) for 20 h. At the end of the 20 hour incubation, samples were incubated with fluorochrome-conjugated antibodies, PE mouse anti-human CD20 and APC Mouse anti-human CD69 (BD Biosciences), for 30 minutes. Samples were then lysed with Lyse solution (BD) and washed with PBS containing 2% fetal bovine serum (FBS). Fluorescent signals were acquired on flow cytometer LSR II (BD) and data were analyzed by Flow Jo. The percentage of activated (CD69hi) B-cell lymphocytes (CD20+) were determined using un-stimulated (negative control) and stimulated (positive control) wells as reference guidelines. The percentage inhibition was calculated and an IC50 curve was constructed using GraphPad Prism software with sigmoidal curve fitting.

Assay [2] concerns the target recombinant human SYK360-635 (Spleen Tyrosine Kinase) (Homo sapiens (Human), UniProt P43405). Briefly: SYK kinase assay (33P ATP incorporation into biotinylated peptide). Format: biochemical. To be noted: purified truncated SYK aa 360-635, 20 μM ATP; read-out: Syk_IC50. How it is done:
Determination of IC50 of Spleen Tyrosine Kinase (SYK) Inhibition:
SYK kinase assay is a standard kinase assay adapted to a 96 well plate format. This assay is performed in 96-well format for IC50 determination with […] which represented 10 half log dilutions and a 40 μL reaction volume. The assay measures the incorporation of radiolabeled ^33P γATP into an N-terminally biotinylated peptide substrate, derived from naturally occurring phosphoacceptor consensus sequence (Biotin-11aa DY*E). Phosphorylated products were detected upon termination of reactions with EDTA and the addition of Streptavidin coated beads.
final concentration: 50 mM HEPES pH7.5
BSA: Bovine Serum Albumin Fraction V, fatty acid free (Roche Diagnostics GmbH, Cat. No. 9100221) diluted to a final concentration of 0.1%
Assay Dilution Buffer (ADB): 50 mM HEPES, 0.1 mM EGTA, 0.1 mM Na Vanadate, 0.1 mM β-glycerophosphate, 10 mM MgCl2, 1 mM DTT, 0.1% BSA, pH 7.5
Bead wash buffer: 10 g/L PBS (Phosphate buffered saline) with 2M NaCl+1% phosphoric acid.
DMSO and the mixture was incubated for 10 min at RT.
The kinase reaction was initiated by the addition of 10 μL 4× substrate cocktail containing the DYE peptide substrate [0 or 5 μM], ATP [20 μM] and ^33PγATP [2 μCi/rxn]. After incubation at 30° C. for 15 min, the reaction was terminated by the transfer of […] pf the reaction sample to a 96 well 0.65 μm Millipore MADVNOB membrane/plate containing 200 μL 5 mM EDTA and 20% Streptavidine coated beads in PBS.
The unbound radionucleotides were washed under vacuum with 3×250 μL 2M NaCl; 2×250 μL 2M NaCl+1% phosphoric acid; 1×250 μL H2O. After the last wash membrane/plates were transferred to an adaptor plate, heat dried for 15 min at 60° C., and 50 μL scintillation cocktail was added to each well and 4 h later the amount of radioactivity was counted in a top counter.

[3] abbreviates: human whole blood, anti-IgM stimulation 20 h, CD69hi CD20+ B cells.

Like-named read-outs stand apart in the source and are kept apart here.

In the case of `Cc1ccc(Nc2cc(OCCN)nnc2C(N)=O)nc1C` [Compound I-13, 6-(2-aminoethoxy)-4-(5,6-dimethylpyridin-2-ylamino)pyridazine-3-carboxamide], the IC50 in assay [1] (setting [3]) was more than 50000 nM.
Turning to `COc1nc(Nc2cc(NCCN)nnc2C(N)=O)ccc1C(C)C` [Compound I-31, 6-(2-aminoethylamino)-4-(5-isopropyl-6-methoxypyridin-2-ylamino)pyridazine-3-carboxamide], the IC50 in assay [2] stood at 9.25 nM; in assay [1] (setting [3]), 1500 nM.
Turning to `Cc1cccc(Nc2cc(Oc3ccccc3C3CC3)nnc2C(N)=O)n1` [Compound I-10, 6-(2-cyclopropylphenoxy)-4-(6-methylpyridin-2-ylamino)pyridazine-3-carboxamide], the IC50 in assay [2] was 2180 nM.
For `Cc1cccc(Nc2cc(Oc3ccccc3C)nnc2C(N)=O)n1` [Compound I-8, 4-(6-methylpyridin-2-ylamino)-6-(o-tolyloxy)pyridazine-3-carboxamide], the IC50 in assay [2] is 373 nM; in assay [1] (Homo sapiens, 20 h), more than 5000 nM.
As for `Cc1cccc(Nc2cc(Oc3ccc(Cl)cc3C#N)nnc2C(N)=O)n1` [Compound I-9, 6-(4-chloro-2-cyanophenoxy)-4-(6-methylpyridin-2-ylamino)pyridazine-3-carboxamide], the IC50 in assay [2] worked out at 1410 nM.
Still for that read-out and setting: then `Cc1cccc(Nc2cc(Oc3ccccc3)nnc2C(N)=O)n1` [Compound I-1, 4-(6-methylpyridin-2-ylamino)-6-phenoxypyridazine-3-carboxamide], with 1320 nM.
On to `Cc1cc(C)nc(Nc2cc(NCCN)nnc2C(N)=O)n1` [Compound I-24, 6-(2-aminoethylamino)-4-(4,6-dimethylpyrimidin-2-ylamino)pyridazine-3-carboxamide], for which the IC50 in assay [2] was 3980 nM; in assay [1] (setting [3]), more than 5000 nM.
Take `Cc1cccc(Nc2cc(Oc3cccc(C#N)c3)nnc2C(N)=O)n1` [Compound I-2, 6-(3-cyanophenoxy)-4-(6-methylpyridin-2-ylamino)pyridazine-3-carboxamide]: the IC50 in assay [2] amounted to 965 nM.
With `Cc1cccc(Nc2nc(CCCN)ncc2C(N)=O)c1` [Compound I-22, 2-(3-amino-propyl)-4-m-tolylamino-pyrimidine-5-carboxylic acid amide], the IC50 in assay [2] is 2540 nM; in assay [1] (setting [3]), more than 5000 nM.
`CC(C)(C)c1nccc(Nc2cc(NCCN)nnc2C(N)=O)n1` [Compound I-28, 6-(2-aminoethylamino)-4-(2-tert-butylpyrimidin-4-ylamino)pyridazine-3-carboxamide]: the IC50 in assay [1] (setting [3]) came to 358 nM.
In the case of `NCCNc1cc(Nc2cccc(C(F)(F)F)n2)c(C(N)=O)nn1` [Compound I-25, 6-(2-aminoethylamino)-4-(6-(trifluoromethyl)pyridin-2-ylamino)pyridazine-3-carboxamide], the IC50 in assay [1] (setting [3]) came out at 52 nM.
For `CCc1ccccc1Oc1cc(Nc2cccc(C)n2)c(C(N)=O)nn1` [Compound I-7, 6-(2-ethylphenoxy)-4-(6-methylpyridin-2-ylamino)pyridazine-3-carboxamide], the IC50 in assay [2] worked out at 473 nM.
For the compound `CC(C)(C#N)c1cccc(Nc2cc(NCCN)nnc2C(N)=O)n1` [Compound I-21, 6-(2-aminoethylamino)-4-(6-(2-cyanopropan-2-yl)pyridin-2-ylamino)pyridazine-3-carboxamide], the IC50 in assay [1] (setting [3]) amounted to 573 nM.
For `Cc1cc(C)cc(Nc2cc(Cl)nnc2C(N)=O)c1` [Compound I-14, 6-chloro-4-(3,5-dimethylphenylamino)pyridazine-3-carboxamide], the figures for the IC50 in assay [2] and in assay [1] (setting [3]) were 124 nM and more than 50000 nM, respectively.
On the same counts, the results for `Cc1ccc(Nc2cc(NC(CN)CC(C)C)nnc2C(N)=O)nc1C(C)C` (stereo not shown) [Compound I-15, 6-(1-aminomethyl-3-methyl-butylamino)-4-(6-isopropyl-5-methyl-pyridin-2-ylamino)-pyridazine-3-carboxylic acid amide] are 2 nM and 931 nM.
On to `Cc1ccc(Nc2cc(NCCN)nnc2C(N)=O)nc1N(C)C` [Compound I-27, 6-(2-aminoethylamino)-4-(6-(dimethylamino)-5-methylpyridin-2-ylamino)pyridazine-3-carboxamide], for which the IC50 in assay [1] (setting [3]) stood at 287 nM.
On to `CC(C)(C)c1cccc(Nc2cc(NCC3(N)CC3)nnc2C(N)=O)n1` [Compound I-19, 6-((1-aminocyclopropyl)methylamino)-4-(6-tert-butylpyridin-2-ylamino)pyridazine-3-carboxamide], for which the IC50 in assay [2] came out at 135 nM; in assay [1] (setting [3]), 6020 nM.
With `CC(C)Oc1cccc(Nc2cc(NCCN)nnc2C(N)=O)n1` [Compound I-33, 6-(2-aminoethylamino)-4-(6-isopropoxypyridin-2-ylamino)pyridazine-3-carboxamide], the values for the IC50 in assay [2] and in assay [1] (setting [3]) were 12.4 nM and 566 nM, respectively.
On to `COC(C)(C)c1cccc(Nc2cc(NCCN)nnc2C(N)=O)n1` [Compound I-29, 6-(2-aminoethylamino)-4-(6-(2-methoxypropan-2-yl)pyridin-2-ylamino)pyridazine-3-carboxamide], for which the IC50 in assay [1] (setting [3]) stood at 1800 nM.
As for `Cc1cccc(Nc2cc(Oc3ccccc3C#N)nnc2C(N)=O)n1` [Compound I-6, 6-(2-cyanophenoxy)-4-(6-methylpyridin-2-ylamino)pyridazine-3-carboxamide], the IC50 in assay [2] came to 385 nM.
In the case of `CC(C)(C)c1cccc(Nc2cc(NCCN)nnc2C(N)=O)n1` [Compound I-16, 6-(2-aminoethylamino)-4-(6-tert-butylpyridin-2-ylamino)pyridazine-3-carboxamide], the results for the IC50 in assay [2] and in assay [1] (setting [3]) were 13 nM and 603 nM, respectively.
In the case of `Cc1cccc(Nc2cc(Oc3cccnc3)nnc2C(N)=O)n1` [Compound I-5, 4-(6-methylpyridin-2-ylamino)-6-(pyridin-3-yloxy)pyridazine-3-carboxamide], the IC50 in assay [2] was 1500 nM.
As to `Cc1cccc(Nc2cc(N[C@@H]3CCCC[C@@H]3N)ccc2C(N)=O)n1` [Compound I-30, 4-((1R,2S)-2-amino-cyclohexylamino)-2-(6-methyl-pyridin-2-ylamino)-benzamide], the IC50 in assay [2] came to 41.8 nM; in assay [1] (setting [3]), 548 nM.
The matching figures for `NC(=O)c1n[nH]c(=O)cc1Nc1cccc(C2CC2)n1` [Compound I-11, 4-(6-cyclopropyl-pyridin-2-ylamino)-6-oxo-1,6-dihydro-pyridazine-3-carboxylic acid amide]: 225 nM and more than 5000 nM.
Take `CC(C)(O)c1cccc(Nc2cc(NCCN)nnc2C(N)=O)n1` [Compound I-23, 6-(2-aminoethylamino)-4-(6-(2-hydroxypropan-2-yl)pyridin-2-ylamino)pyridazine-3-carboxamide]: the IC50 in assay [1] (setting [3]) was determined as 2060 nM.
In the case of `Cc1cccc(Nc2cc(Oc3cccc(C(C)(C)N)c3)nnc2C(N)=O)n1` [Compound I-3, 6-(3-(2-aminopropan-2-yl)phenoxy)-4-(6-methylpyridin-2-ylamino)pyridazine-3-carboxamide], in assay [2], the IC50 was 2240 nM.
